The values that follow come from patent US20040167165A1, “Methods of treating conditions associated with an Edg-7 receptor” (priority 2003, published 2004).

The target of one data set is T1, Edg-8 (Homo sapiens, UniProt Q9H228).
T1 construct: expressed in transfected cells; host or cells: HTC rat hepatoma cells
Description: S1P-stimulated calcium increases in HTC cells expressing Edg-8. The format is cell-based. Particulars: concentrations as high as 10 μM.

The target of the next data set is T2, Edg-1 (Homo sapiens, UniProt P21453).
T2 construct: expressed in transfected cells; host or cells: HTC rat hepatoma cells
Description: S1P-stimulated calcium increases in HTC cells expressing Edg-1. The format is cell-based. Particulars: concentrations as high as 10 μM.

A further data set addresses T3, Edg-3 (Homo sapiens, UniProt Q99500).
T3 construct: expressed in transfected cells; host or cells: HTC rat hepatoma cells
Description: S1P-stimulated calcium increases in HTC cells expressing Edg-3. The format is cell-based. Particulars: concentrations as high as 10 μM.

A further data set has as its target T4, Edg-2 (Homo sapiens, UniProt Q92633).
T4 construct: expressed in transfected cells; host or cells: HTC rat hepatoma cells
Put plainly: LPA-stimulated calcium increases in HTC cells expressing Edg-2. The format is cell-based. Particulars: concentrations as high as 10 μM.

Another data set concerns Edg4. Put plainly: LPA-stimulated calcium increases in HTC cells expressing Edg4. The format is cell-based. Particulars: concentrations as high as 10 μM.
A further data set concerns the target T5, Edg-5 (Homo sapiens, UniProt O95136).
T5 construct: expressed in transfected cells; host or cells: HTC rat hepatoma cells
Description: S1P-stimulated calcium increases in HTC cells expressing Edg-5. The format is cell-based. Particulars: concentrations as high as 10 μM.

For data set [1], the system named is targets, including GPCRs and ion channels. Put plainly: Pharmacology profiling: radioligand binding assays on non-Edg targets. Particulars: Section 6.10 panel: adrenergic α1, α2, β, angiotensin AT2, calcium channel Type L, dopamine D2L, endothelin ETA, histamine H1, muscarinic, serotonin 5-HT1; significance criteria ≧50%. The method, then:
In order to test the selectivity of compounds, various enzyme assays as well as radioligand binding assays were performed using numerous non-Edg receptor targets as listed below.
A radioligand binding assay was performed using adrenergic α1 according to the method of Greengrass and Bremner 1979, Eur. J. Pharmacol. 55:323-326. A radioligand binding assay was performed using adrenergic α2 according to the method of Boyajian and Leslie, 1987, J. Pharmacol. Exp. Ther. 241:1092-1098. A radioligand binding assay was performed using adrenergic β according to the method of Feve et al., 1994, Proc. Natl. Acad. Sci. USA 91:5677-5681. A radioligand binding assay was performed using angiotensin AT2 according to the method of Whitebread et al., 1991, Biochem. Biophys. Res. Comm. 181:1365-1371. A radioligand binding assay was performed using calcium channel Type L, dihydropyridine according to the method of Ehlert et al., 1982, Life Sci. 30:2191-2202. A radioligand binding assay was performed using dopamine D2L according to the method of Bunzo et al., 1988, Nature 336:783-787. A radioligand binding assay was performed using endothelin ETA according to the method of Mihara et al., 1994, J. Phrmacol. Exp Ther. 268:1122-1127. A radioligand binding assay was performed using histamine H1 Central according to the method of Hill et al., 1978, J. Neurochem. 31:997-1004. […]

The target in the next data set is T6, human Edg 7 receptors (Homo sapiens, UniProt Q9UBY5).
T6 construct: expressed in transfected cells; host or cells: HTC rat hepatoma cells
T6 sequence (Q9UBY5 1-353): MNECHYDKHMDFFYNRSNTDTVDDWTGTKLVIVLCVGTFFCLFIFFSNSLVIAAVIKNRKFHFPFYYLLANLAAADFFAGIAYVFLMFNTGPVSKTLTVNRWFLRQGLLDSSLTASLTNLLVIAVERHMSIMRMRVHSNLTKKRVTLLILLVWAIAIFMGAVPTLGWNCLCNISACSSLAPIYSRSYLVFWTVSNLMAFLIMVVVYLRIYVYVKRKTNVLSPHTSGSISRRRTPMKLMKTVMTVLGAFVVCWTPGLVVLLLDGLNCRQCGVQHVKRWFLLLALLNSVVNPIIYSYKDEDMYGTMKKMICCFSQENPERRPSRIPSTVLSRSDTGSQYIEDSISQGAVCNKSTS
Description: LPA-stimulated calcium mobilization (FLIPR) in HTC cells expressing Edg-7. The format is cell-based. The method, then: The compounds were tested in HTC cells expressing human Edg 7 receptors, as well as in HT1080 human fibrosarcoma cell lines that naturally express Edg 7 receptors. […] The compounds are tested in this recombinant system first, and subsequently tested in cell lines expressing Edg-7 (in addition to other Edg receptors).
LPA receptors such as Edg-7, couple to calcium effector pathways, and result in increases in intracellular calcium following receptor activation (An, 1998, J. Cell. Biochem Supp. 30-31:147-157). This biological response lends itself to a very efficient, high-throughput screen using a Fluorescence Imaging Plate Reader (FLIPR; Molecular Devices, Sunnyvale, Calif.). The FLIPR system is a real-time, cell-based assay system with continuous fluorescence detection using a cooled CCD camera. The FLIPR system was used to developing an Edg-7 receptor screen. Rat hepatoma cells stably expressing Edg-7 receptor were plated on 384-well plates and loaded with a calcium dye loading kit (Molecular Devices, Sunnyvale, Calif.) for 1 hour at room temperature. Cells were then placed on the FLIPR^384 (Molecular Devices, Sunnyvale, Calif.) and excited by an argon laser at 488 nm. The data for the entire 384-well plate was updated every second. An integrated robotic pipettor allowed for simultaneous compound addition into each individual well in the plate.
A general note: A change in cytosolic calcium serves as a functional read-out for many receptors and channels.

T3 sequence (Q99500 whole entry): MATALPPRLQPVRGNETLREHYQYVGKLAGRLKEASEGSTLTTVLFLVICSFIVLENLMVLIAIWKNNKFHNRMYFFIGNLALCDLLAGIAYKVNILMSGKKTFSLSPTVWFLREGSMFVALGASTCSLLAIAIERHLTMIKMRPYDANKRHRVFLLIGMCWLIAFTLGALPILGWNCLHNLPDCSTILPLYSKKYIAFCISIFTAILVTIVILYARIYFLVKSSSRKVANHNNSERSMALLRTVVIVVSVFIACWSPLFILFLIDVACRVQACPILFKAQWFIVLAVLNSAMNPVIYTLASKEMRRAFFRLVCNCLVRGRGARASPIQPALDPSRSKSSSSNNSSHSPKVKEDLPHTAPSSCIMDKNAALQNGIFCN
T1 sequence (Q9H228 whole entry): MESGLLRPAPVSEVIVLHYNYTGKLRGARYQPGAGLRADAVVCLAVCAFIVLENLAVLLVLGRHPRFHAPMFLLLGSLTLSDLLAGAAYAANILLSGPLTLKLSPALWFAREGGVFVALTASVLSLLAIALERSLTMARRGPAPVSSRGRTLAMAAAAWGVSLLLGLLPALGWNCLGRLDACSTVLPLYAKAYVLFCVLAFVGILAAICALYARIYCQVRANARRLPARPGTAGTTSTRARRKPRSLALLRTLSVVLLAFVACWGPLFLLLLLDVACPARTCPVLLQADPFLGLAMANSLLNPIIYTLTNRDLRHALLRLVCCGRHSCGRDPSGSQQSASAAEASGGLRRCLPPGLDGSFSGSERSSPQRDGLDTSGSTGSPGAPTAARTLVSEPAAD
T2 sequence (P21453 whole entry): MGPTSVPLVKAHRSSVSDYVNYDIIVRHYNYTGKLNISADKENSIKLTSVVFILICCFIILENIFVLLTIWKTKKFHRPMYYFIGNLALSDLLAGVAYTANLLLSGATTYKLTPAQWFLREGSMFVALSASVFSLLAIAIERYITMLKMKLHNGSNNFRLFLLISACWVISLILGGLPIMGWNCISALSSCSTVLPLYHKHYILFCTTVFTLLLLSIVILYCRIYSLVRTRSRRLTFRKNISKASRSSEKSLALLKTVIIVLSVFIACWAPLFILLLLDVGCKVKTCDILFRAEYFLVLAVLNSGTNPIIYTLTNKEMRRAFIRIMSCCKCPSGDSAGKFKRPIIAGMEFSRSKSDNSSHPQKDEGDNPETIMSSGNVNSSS
T4 sequence (Q92633 whole entry): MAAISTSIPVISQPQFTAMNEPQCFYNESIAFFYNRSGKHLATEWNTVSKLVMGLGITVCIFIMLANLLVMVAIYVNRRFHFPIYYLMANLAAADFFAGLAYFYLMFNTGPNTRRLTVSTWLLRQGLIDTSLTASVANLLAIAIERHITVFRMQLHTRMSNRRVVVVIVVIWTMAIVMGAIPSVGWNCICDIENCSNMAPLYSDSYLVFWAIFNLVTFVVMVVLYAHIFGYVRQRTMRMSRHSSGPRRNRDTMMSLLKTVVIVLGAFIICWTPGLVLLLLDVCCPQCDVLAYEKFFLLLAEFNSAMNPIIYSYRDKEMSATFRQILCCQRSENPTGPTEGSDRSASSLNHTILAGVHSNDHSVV
T5 sequence (O95136 whole entry): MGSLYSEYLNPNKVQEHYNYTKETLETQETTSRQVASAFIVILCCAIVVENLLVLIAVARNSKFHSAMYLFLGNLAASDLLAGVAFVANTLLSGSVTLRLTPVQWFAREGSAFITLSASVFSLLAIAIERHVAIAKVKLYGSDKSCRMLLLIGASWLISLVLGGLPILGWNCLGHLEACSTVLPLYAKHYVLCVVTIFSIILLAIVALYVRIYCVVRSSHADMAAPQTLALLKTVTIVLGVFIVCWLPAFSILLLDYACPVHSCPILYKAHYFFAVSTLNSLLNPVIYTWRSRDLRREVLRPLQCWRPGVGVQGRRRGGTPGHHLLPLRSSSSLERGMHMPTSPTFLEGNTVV

`Cc1cc(C)c2c(c1)Cc1ccccc1S2(=O)=O` [Compound 133, 2,4-Dimethyl-9H-thioxanthene 10,10-dioxide]: the melting point (commonly the temperature, or range, at which the solid turns liquid) is 103 to 105 °C.

In turn, `COc1ccc(-c2nc3ccc(C(=O)O)cc3nc2-c2ccc(OC)cc2)cc1` [Compound 129, 2,3-bis-(4-Methoxyphenyl)quinoxaline-6-carboxylic acid] yielded a melting point of 284 to 285 °C.

As to `CCOC(=O)c1c(NC(=O)NS(=O)(=O)c2ccccc2Cl)sc2c1CCCC2` [Compound 101], the “inhibition of S1P-stimulated calcium increases” value at Edg-8, on Edg-1, on Edg-3 and at Edg-5 was “did not inhibit” in each case. Besides, the “inhibition of LPA-stimulated calcium increases” value at Edg-2 and with Edg4 was “did not inhibit” each time. The “activity in radioligand binding assays” value in data set [1] is “no significant activity”. In addition, the “inhibition of the Edg-7 receptor” value at human Edg 7 receptors (FIG. 1, HTC cells) is given as “specifically inhibit”. At human Edg 7 receptors (HTC cells expressing human Edg 7 receptors, as well as HT1080 human fibrosarcoma cell lines), the “inhibition of Edg-7 stimulated LPA responses” value is on record as “demonstrate inhibition”.
